Columns and labels:
Assay type in all cases: physicochemical
[1] = Solubility of pesticide in the solvent (highest concentration without crystallization); settings: no crystals after seeding; for Solubility in Weight %: Bromoxynil Octanoate: pesticide Bromoxynil Octanoate dissolved in the solvent; for Solubility in Weight %: Chlorpyrifos: pesticide Chlorpyrifos dissolved in the solvent; for Solubility in Weight %: Pendimethalin: pesticide Pendimethalin dissolved in the solvent; for Solubility in Weight %: Permethrin: pesticide Permethrin dissolved in the solvent; for Solubility in Weight %: Trifluralin: pesticide Trifluralin dissolved in the solvent
Protocol: Solubility was determined by adding a predetermined weight of pesticide to a vial and then adding the solvent to within 10 grams to make the appropriate concentrations. Several different concentrations were made. […] The vials were capped and inverted several times to completely dissolve the pesticide. If the pesticide was not completely dissolved, the vials were placed in a beaker filled with warm water until the pesticide dissolved. The water was not heated closer than 30° C. of the flash point of the solvent being tested. The vial was removed from the heated beaker and was left to stand for 3 hours at room temperature. The vial was then placed into a chiller, an ethylene glycol bath, if a lower temperature was desired. […] If crystals were present, the solutions in the vials were diluted, the vials were inverted several times, the vials were either heated or cooled, and the vials were checked for crystals. The vials were allowed to stand for 24 hours and were then rechecked for crystals. If crystals were still absent after 24 hours, one crystal of pesticide was added to the vial (seeding) and the vial was inverted several times to assure the crystal was dissolved. The vial was left to stand for 48 hours and rechecked for crystals. If crystals were present, the solution was diluted further and the previous steps were repeated until no crystals appeared after seeding. […] The test was started again at the beginning with higher concentrations of the pesticide in the solvent.

[2] = Mixed Aniline Point, variation of ASTM D-611-82; settings: 10 milliliters aniline + 5 milliliters sample + 5 milliliters n-heptane
Protocol: For the Mixed Aniline Point, 10 milliliters of aniline was added to a test tube. The test tube was fitted with a suitable stirrer and thermometer. The thermometer was centered in the test tube and some padding was kept at the base of the stand to avoid breakage of the test tube if it slipped. […] Added to the test tube containing aniline was 5 milliliters of sample and 5 milliliters of n-heptane. The test tube was placed into a cooling bath of isopropyl alcohol and dry ice. The mixture was continuously stirred rapidly using 2 inch strokes, avoiding introduction of air bubbles. The mixture was allowed to cool below the first appearance of turbidity and the Mixed Aniline Point was recorded.

[3] = Kauri Butanol Value, variation of ASTM D-1133-02; settings: 20 grams kauri-butanol solution titrated with the solvent
Protocol: Kauri Butanol Value was determined by a variation of ASTM D-1133-02. In a […] Erlenmeyer flask, 20 grams (±0.1 grams) of kauri-butanol solution was added. The flask was placed in a water bath at 20° C. (±1° C.). A 50-milliliter burette was filled with the solvent being tested. The standardized kauri-butanol solution was titrated with the solvent being tested until the end point was reached. A photocopy of the residence listings from a telephone book was used as the 10 point print sample placed directly beneath the water bath. The tester looked through the liquid at the print to observe the end point. […] The volume in milliliters of solvent added to the flask to produce turbidity was recorded. The kauri-butanol values were calculated using the following formula: Kauri-Butanol value=[65(C−B)/(A−B)]+40 (1) where A is the milliliters of toluene required to titrate 20 grams of kauri-butanol solution (the A factor should be on the certificate of analysis that accompanies the standardized kauri-butanol solution); • B is the milliliters of n-heptane-toluene blend required to titrate 20 grams of kauri butanol solution (the B factor should be on the certificate of analysis that accompanies the standardized kauri-butanol solution); and • C is the milliliters of solvent being tested that are required to titrate 20 grams of kauri-butanol solution. […]

Molecule | Solubility in Weight %: Bromoxynil Octanoate [1] | Solubility in Weight %: Chlorpyrifos [1] | Solubility in Weight %: Pendimethalin [1] | Solubility in Weight %: Permethrin [1] | Solubility in Weight %: Trifluralin [1] | Mixed Aniline Point [2] | Kauri-Butanol Value [3]
Dipentylindan [Example 12] | 25 Weight % | 40 Weight % | <15 Weight % | 50 Weight % | <15 Weight % |  | 
Cc1cc(C)cc(C(C)(C)C)c1 [Example 5, 5-ter-Butyl-m-Xylene] | 61 Weight % | 65 Weight % | 35 Weight % | 65 Weight % | 50 Weight % | 28 °C | 66
Monopentylindan [Example 11] | 50 Weight % | 60 Weight % | 25 Weight % | 65 Weight % | 35 Weight % |  | 
CCCCCCCCCCCCc1ccccc1 [Example 17, Dodecyl Benzene] | 40 Weight % | 50 Weight % | 20 Weight % | 45 Weight % | 25 Weight % | 43 °C | 36
CN1CCCC1=O [Example 10, 1-Methyl-2-Pyrrilidinone] | 75 Weight % | 80 Weight % | 55 Weight % | 75 Weight % | 70 Weight % |  | 
